# Data as given in paper PMC4447944 (The Journal of Biological Chemistry, 2015).
# Columns and labels:
# hMAP4K5 = target: T1, hMAP4K5 (Homo sapiens, UniProt Q9Y4K4); assay: KINOMEscan; format: binding
# T1 construct: purchased DiscoverX
# hCDKL3 = target: T2, hCDKL3 (Homo sapiens, UniProt Q8IVW4); assay: KINOMEscan; format: binding
# T2 construct: purchased DiscoverX
# hPPARα = target: T3, hPPARα (Homo sapiens, UniProt Q07869); assay: Nuclear hormone receptor assay (Eurofins-CEREP); conditions: read-out: Relative IC50
# T3 construct: Eurofins-CEREP
# T3 sequence (Q07869 whole entry): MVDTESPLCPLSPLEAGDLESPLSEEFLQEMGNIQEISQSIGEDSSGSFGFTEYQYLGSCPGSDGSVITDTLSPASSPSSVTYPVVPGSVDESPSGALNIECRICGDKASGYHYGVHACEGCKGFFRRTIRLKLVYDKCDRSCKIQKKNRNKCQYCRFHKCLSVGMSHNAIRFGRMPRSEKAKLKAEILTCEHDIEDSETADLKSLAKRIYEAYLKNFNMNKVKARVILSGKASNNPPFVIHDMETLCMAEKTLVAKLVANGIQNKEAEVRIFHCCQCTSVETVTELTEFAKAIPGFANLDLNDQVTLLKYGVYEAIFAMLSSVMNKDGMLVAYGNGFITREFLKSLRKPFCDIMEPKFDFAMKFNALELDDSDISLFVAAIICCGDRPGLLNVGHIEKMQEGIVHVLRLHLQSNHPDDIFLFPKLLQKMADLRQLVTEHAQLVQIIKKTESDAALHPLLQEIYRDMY
# hCLK3 = target: T4, hCLK3 (Homo sapiens, UniProt P49761); assay: KINOMEscan; format: binding
# T4 construct: purchased DiscoverX
# hDYRK1B = target: T5, hDYRK1B (Homo sapiens, UniProt Q9Y463); assay: KINOMEscan; format: binding; conditions: read-out: Inhibition at the 20 μM dose
# T5 construct: purchased DiscoverX
# T5 sequence (Q9Y463 whole entry): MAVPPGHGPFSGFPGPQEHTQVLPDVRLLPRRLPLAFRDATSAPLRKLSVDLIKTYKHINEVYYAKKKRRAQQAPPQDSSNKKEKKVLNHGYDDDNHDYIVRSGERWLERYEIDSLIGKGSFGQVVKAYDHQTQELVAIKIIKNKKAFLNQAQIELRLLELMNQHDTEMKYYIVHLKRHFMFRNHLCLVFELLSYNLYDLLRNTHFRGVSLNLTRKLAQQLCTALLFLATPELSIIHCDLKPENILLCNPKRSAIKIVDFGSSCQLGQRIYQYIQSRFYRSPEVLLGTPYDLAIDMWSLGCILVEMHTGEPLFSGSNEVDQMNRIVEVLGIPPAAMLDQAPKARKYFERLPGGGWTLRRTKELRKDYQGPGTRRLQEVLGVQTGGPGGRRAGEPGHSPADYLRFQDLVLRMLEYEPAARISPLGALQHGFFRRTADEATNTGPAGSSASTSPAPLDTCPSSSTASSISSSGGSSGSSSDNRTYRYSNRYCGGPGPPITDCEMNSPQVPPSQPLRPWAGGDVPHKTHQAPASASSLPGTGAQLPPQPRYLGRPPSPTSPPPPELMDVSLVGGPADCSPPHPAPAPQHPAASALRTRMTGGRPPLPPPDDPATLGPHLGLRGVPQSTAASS
# hCSNK1G1 = target: T6, hCSNK1G1 (Homo sapiens, UniProt Q9HCP0); assay: KINOMEscan; format: binding
# T6 construct: purchased DiscoverX (KINOMEscan platform)
# T6 sequence (Q9HCP0 whole entry): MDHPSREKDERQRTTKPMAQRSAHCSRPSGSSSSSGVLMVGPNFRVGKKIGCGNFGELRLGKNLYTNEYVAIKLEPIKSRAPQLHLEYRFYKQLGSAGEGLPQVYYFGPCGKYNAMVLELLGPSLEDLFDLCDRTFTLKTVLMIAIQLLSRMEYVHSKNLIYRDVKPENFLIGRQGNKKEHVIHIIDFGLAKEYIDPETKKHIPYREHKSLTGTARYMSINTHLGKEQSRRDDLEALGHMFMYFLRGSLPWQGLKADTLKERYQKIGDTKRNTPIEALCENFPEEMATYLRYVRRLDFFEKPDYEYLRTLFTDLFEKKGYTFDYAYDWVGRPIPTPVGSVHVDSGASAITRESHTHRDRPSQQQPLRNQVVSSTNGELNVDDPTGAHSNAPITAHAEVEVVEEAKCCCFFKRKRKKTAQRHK
# hTYK2(JH1Dom.-catalytic) = target: T7, hTYK2(JH1Dom.-catalytic) (Homo sapiens, UniProt P29597); assay: KINOMEscan; format: binding
# T7 construct: hTYK2(JH1Dom.-catalytic); purchased DiscoverX
# [1] = target: T8, hJAK1(JH2Dom.-pseudokinase) (Homo sapiens, UniProt P23458); assay: KINOMEscan; format: binding
# T8 construct: hJAK1(JH2Dom.-pseudokinase); purchased DiscoverX (KINOMEscan panel)
# T8 sequence (P23458 583-855 limits assumed): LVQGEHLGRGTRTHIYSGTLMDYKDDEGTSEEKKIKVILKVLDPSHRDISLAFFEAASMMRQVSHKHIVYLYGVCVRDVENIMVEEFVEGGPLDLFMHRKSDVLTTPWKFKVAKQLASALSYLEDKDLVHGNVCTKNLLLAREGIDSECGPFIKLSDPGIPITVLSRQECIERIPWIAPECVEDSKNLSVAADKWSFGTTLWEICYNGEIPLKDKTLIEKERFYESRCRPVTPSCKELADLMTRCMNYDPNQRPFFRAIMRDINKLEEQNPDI
# hTGFBR1 = target: T9, hTGFBR1 (Homo sapiens, UniProt P36897); assay: KINOMEscan; format: binding
# T9 construct: purchased DiscoverX
# hEPHA8 = target: T10, hEPHA8 (Homo sapiens, UniProt P29322); assay: KINOMEscan; format: binding
# T10 construct: purchased DiscoverX
# hJAK1(JH1Dom.-catalytic) = target: T11, hJAK1(JH1Dom.-catalytic) (Homo sapiens, UniProt P23458); assay: KINOMEscan; format: binding
# T11 construct: hJAK1(JH1Dom.-catalytic); purchased DiscoverX (KINOMEscan panel)
# T11 sequence (P23458 875-1153 limits assumed): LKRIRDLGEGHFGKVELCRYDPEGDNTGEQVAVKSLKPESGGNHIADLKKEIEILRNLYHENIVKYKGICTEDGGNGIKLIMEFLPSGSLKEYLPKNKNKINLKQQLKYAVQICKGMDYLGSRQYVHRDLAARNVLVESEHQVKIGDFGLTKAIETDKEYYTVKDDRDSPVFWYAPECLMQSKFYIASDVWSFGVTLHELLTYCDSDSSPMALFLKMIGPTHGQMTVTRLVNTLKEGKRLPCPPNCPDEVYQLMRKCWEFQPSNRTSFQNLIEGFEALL
# hABL1(pF317L) = target: T12, hABL1(pF317L) (Homo sapiens, UniProt P00519, F317L); assay: KINOMEscan; format: binding
# T12 construct: purchased DiscoverX (KINOMEscan platform)
# hRSK1(Kin.Dom.2-C-term) = target: T13, hRSK1(Kin.Dom.2-C-term) (Homo sapiens, UniProt Q15418); assay: KINOMEscan; format: binding
# T13 construct: hRSK1(Kin.Dom.2-C-term); purchased DiscoverX (KINOMEscan platform)
# hCHEK2 = target: T14, hCHEK2 (Homo sapiens, UniProt O96017); assay: KINOMEscan; format: binding
# T14 construct: purchased DiscoverX
# hACVR1B = target: T15, hACVR1B (Homo sapiens, UniProt P36896); assay: KINOMEscan; format: binding
# T15 construct: purchased DiscoverX (KINOMEscan platform)
# hCSNK1G2 = target: T16, hCSNK1G2 (Homo sapiens, UniProt P78368); assay: KINOMEscan; format: binding
# T16 construct: purchased DiscoverX (KINOMEscan platform)
# hCAMK1G = target: T17, hCAMK1G (Homo sapiens, UniProt Q96NX5); assay: KINOMEscan; format: binding
# T17 construct: purchased DiscoverX
# hYANK2 = target: T18, hYANK2 (Homo sapiens, UniProt Q9NY57); assay: KINOMEscan; format: binding
# T18 construct: purchased DiscoverX
# hRIPK2 = target: T19, hRIPK2 (Homo sapiens, UniProt O43353); assay: KINOMEscan; format: binding
# T19 construct: purchased DiscoverX (KINOMEscan platform)
# hSTK33 = target: T20, hSTK33 (Homo sapiens, UniProt Q9BYT3); assay: KINOMEscan; format: binding
# T20 construct: purchased DiscoverX (KINOMEscan platform)
# T20 sequence (Q9BYT3 whole entry): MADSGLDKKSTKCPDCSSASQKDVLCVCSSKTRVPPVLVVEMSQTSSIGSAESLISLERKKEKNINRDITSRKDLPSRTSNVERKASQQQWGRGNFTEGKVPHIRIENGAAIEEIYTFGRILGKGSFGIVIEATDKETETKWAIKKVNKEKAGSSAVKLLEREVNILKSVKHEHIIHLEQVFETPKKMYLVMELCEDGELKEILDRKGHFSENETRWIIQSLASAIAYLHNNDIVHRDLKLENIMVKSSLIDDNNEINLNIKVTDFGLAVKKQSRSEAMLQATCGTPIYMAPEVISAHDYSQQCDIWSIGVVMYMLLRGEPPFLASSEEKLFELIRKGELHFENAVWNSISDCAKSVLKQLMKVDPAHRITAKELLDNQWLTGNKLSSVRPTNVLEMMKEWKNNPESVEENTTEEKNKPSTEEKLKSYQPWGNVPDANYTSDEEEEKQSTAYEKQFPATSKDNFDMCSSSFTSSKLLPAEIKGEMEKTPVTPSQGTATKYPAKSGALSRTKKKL
# hQSK = target: T21, hQSK (Homo sapiens, UniProt Q9Y2K2); assay: KINOMEscan; format: binding
# T21 construct: purchased DiscoverX (KINOMEscan platform)
# hMAP4K3 = target: T22, hMAP4K3 (Homo sapiens, UniProt Q8IVH8); assay: KINOMEscan; format: binding
# T22 construct: purchased DiscoverX (KINOMEscan platform)
# hACVRL1 = target: T23, hACVRL1 (Homo sapiens, UniProt P37023); assay: KINOMEscan; format: binding
# T23 construct: purchased DiscoverX (KINOMEscan platform)
# hRARβ = target: T24, hRARβ (Homo sapiens, UniProt P10826); assay: Nuclear hormone receptor assay (Eurofins-CEREP); conditions: read-out: Relative IC50
# T24 construct: Eurofins-CEREP
# hLZK = target: T25, hLZK (Homo sapiens, UniProt O43283); assay: KINOMEscan; format: binding
# T25 construct: purchased DiscoverX (KINOMEscan platform)
# T25 sequence (O43283 whole entry): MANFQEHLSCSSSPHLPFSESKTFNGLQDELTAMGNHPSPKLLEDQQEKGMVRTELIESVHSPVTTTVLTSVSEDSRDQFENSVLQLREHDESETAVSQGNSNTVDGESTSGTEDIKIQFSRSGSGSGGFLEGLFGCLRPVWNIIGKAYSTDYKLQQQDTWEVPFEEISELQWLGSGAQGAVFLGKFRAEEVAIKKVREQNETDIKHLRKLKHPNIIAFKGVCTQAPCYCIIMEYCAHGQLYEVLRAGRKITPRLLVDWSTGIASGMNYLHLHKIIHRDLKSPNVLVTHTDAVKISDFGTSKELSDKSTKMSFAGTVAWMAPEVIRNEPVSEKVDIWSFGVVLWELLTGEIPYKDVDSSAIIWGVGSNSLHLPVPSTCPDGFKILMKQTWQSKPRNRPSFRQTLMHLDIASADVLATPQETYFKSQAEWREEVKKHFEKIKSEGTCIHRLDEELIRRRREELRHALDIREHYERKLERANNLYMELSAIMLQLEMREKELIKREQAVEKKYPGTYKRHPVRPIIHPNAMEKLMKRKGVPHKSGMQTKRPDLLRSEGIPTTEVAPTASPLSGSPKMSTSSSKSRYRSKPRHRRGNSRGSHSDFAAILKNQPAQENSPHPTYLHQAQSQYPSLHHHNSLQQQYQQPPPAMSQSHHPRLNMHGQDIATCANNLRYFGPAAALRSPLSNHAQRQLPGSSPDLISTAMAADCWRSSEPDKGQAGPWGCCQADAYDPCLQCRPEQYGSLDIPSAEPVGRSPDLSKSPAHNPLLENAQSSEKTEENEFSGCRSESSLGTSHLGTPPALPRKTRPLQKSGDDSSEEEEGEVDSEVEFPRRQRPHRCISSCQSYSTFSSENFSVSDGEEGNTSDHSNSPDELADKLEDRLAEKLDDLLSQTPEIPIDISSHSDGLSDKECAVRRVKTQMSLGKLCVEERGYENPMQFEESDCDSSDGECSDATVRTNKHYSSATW
# hTESK1 = target: T26, hTESK1 (Homo sapiens, UniProt Q15569); assay: KINOMEscan; format: binding
# T26 construct: purchased DiscoverX
# hDMPK2 = target: T27, hDMPK2 (Homo sapiens, UniProt Q6DT37); assay: KINOMEscan; format: binding
# T27 construct: purchased DiscoverX (KINOMEscan platform)
# hFLT3(D835Y) = target: T28, hFLT3(D835Y) (Homo sapiens, UniProt P36888, D835Y); assay: KINOMEscan; format: binding
# T28 construct: purchased DiscoverX
# hD2L = hD2L (Homo sapiens, UniProt P14416); assay: β-arrestin Antagonist (Eurofins-CEREP); conditions: read-out: % Effect, Inhibition
# hMLCK = target: T29, hMLCK (Homo sapiens, UniProt Q32MK0); assay: KINOMEscan; format: binding
# T29 construct: purchased DiscoverX
# hADRβ2 = hADRβ2 (Homo sapiens, UniProt P07550); assay: cAMP Agonist (Eurofins-CEREP); conditions: @ 10 μM
# Chain of hADRβ2 (P07550 whole entry): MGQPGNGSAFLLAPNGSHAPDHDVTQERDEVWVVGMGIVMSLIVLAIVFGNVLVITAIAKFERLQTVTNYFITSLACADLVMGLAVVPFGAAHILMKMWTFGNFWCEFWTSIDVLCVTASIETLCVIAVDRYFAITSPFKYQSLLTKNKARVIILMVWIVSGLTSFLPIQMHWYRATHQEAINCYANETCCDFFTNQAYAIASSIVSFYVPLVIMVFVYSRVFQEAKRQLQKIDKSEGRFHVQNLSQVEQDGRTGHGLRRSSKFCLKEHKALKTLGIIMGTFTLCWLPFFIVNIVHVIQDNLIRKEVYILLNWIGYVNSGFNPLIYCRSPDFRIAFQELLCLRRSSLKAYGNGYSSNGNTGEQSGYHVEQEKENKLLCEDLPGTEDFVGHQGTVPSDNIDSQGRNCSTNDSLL
# hGRK1 = target: T30, hGRK1 (Homo sapiens, UniProt Q15835); assay: KINOMEscan; format: binding
# T30 construct: purchased DiscoverX
# hKIT(V559D,V654A) = target: T31, hKIT(V559D,V654A) (Homo sapiens, UniProt P10721, V559D/V654A); assay: KINOMEscan; format: binding
# T31 construct: purchased DiscoverX (KINOMEscan platform)
# hIGF1R = target: T32, hIGF1R (Homo sapiens, UniProt P08069); assay: KINOMEscan; format: binding
# T32 construct: purchased DiscoverX (KINOMEscan panel)
# hABL1(F317L) = target: T33, hABL1(F317L) (Homo sapiens, UniProt P00519, F317L); assay: KINOMEscan; format: binding
# T33 construct: purchased DiscoverX (KINOMEscan platform)
# hEPHA6 = target: T34, hEPHA6 (Homo sapiens, UniProt Q9UF33); assay: KINOMEscan; format: binding
# T34 construct: purchased DiscoverX
# T34 sequence (Q9UF33 23-1036): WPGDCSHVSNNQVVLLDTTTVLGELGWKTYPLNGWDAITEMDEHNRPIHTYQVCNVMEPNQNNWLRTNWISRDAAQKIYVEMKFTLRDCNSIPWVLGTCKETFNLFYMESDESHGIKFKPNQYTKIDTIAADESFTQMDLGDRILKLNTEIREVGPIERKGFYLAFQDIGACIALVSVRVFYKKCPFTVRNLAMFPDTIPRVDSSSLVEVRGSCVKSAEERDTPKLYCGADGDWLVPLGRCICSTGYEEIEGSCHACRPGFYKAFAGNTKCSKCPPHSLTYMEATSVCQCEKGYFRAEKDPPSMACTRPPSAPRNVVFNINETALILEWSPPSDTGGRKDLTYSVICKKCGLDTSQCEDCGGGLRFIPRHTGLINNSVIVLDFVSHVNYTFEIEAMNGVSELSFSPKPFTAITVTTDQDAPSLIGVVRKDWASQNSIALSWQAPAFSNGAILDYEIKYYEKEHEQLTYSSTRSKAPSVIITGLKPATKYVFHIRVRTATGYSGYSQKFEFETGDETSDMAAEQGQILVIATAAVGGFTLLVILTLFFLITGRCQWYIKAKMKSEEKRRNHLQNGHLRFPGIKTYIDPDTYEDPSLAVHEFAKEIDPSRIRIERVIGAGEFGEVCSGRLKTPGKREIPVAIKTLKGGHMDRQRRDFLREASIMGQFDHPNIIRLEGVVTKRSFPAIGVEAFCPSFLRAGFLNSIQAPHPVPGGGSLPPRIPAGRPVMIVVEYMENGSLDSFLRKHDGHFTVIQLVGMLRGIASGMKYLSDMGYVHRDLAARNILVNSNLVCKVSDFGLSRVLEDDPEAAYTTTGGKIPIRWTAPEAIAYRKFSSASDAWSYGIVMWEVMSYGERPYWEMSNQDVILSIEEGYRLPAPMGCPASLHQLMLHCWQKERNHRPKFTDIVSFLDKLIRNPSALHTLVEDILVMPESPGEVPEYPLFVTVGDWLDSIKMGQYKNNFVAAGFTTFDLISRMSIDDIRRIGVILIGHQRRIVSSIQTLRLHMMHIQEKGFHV
# hERβ = target: T35, hERβ (Homo sapiens, UniProt Q92731); assay: Nuclear hormone receptor assay (Eurofins-CEREP); conditions: read-out: Relative IC50
# T35 construct: Eurofins-CEREP
# hABL1(H396P) = target: T36, hABL1(H396P) (Homo sapiens, UniProt P00519, H396P); assay: KINOMEscan; format: binding
# T36 construct: purchased DiscoverX (KINOMEscan platform)
# hTRKA = target: T37, hTRKA (Homo sapiens, UniProt P04629); assay: KINOMEscan; format: binding
# T37 construct: purchased DiscoverX
smiles,measurement,setting,value
"Cc1cn(CCN2CCN(c3ccccc3-c3cc(C#N)cc(C(=O)NCCCN4CCCC4)c3)CC2)c2ccccc12 [LLY-507, 3-cyano-5-{2-[4-[2-(3-methylindol-1-yl)ethyl]piperazin-1-yl]-phenyl}-N-[(3-pyrrolidin-1-yl)propyl]benzamide]",IC50,hMAP4K5,> 20 µM
same,IC50,hCDKL3,> 20 µM
same,IC50,hPPARα,> 10 µM
same,IC50,hCLK3,> 20 µM
same,inhibition at 20 µM,hDYRK1B,< 50%
same,IC50,hCSNK1G1,> 20 µM
same,IC50,hTYK2(JH1Dom.-catalytic),> 20 µM
same,IC50,[1],> 20 µM
same,IC50,hTGFBR1,> 20 µM
same,IC50,hEPHA8,> 20 µM
same,IC50,hJAK1(JH1Dom.-catalytic),> 20 µM
same,IC50,hABL1(pF317L),> 20 µM
same,IC50,hRSK1(Kin.Dom.2-C-term),> 20 µM
same,IC50,hCHEK2,> 20 µM
same,IC50,hACVR1B,> 20 µM
same,IC50,hCSNK1G2,> 20 µM
same,IC50,hCAMK1G,> 20 µM
same,IC50,hYANK2,> 20 µM
same,IC50,hRIPK2,> 20 µM
same,IC50,hSTK33,> 20 µM
same,IC50,hQSK,> 20 µM
same,IC50,hMAP4K3,> 20 µM
same,IC50,hACVRL1,> 20 µM
same,IC50,hRARβ,> 10 µM
same,IC50,hLZK,> 20 µM
same,IC50,hTESK1,> 20 µM
same,IC50,hDMPK2,> 20 µM
same,IC50,hFLT3(D835Y),> 20 µM
same,inhibition at 10 µM,hD2L,29.8%
same,IC50,hMLCK,> 20 µM
same,"% Effect, Stimulation",hADRβ2,0.1%
same,IC50,hGRK1,> 20 µM
same,IC50,"hKIT(V559D,V654A)",> 20 µM
same,IC50,hIGF1R,> 20 µM
same,IC50,hABL1(F317L),> 20 µM
same,IC50,hEPHA6,> 20 µM
same,IC50,hERβ,> 10 µM
same,IC50,hABL1(H396P),> 20 µM
same,IC50,hTRKA,> 20 µM
